# Laboratory results reported in publication PMC5053896 (Journal of the American Chemical Society, 2016).
# Like-named read-outs stand apart in the source and are kept apart here.
# Assays:
# [1] = molecular target: MurX (Mycobacterium tuberculosis, UniProt P9WMW7); assay: biochemical; assay type: biochemical, M. tuberculosis
# [2] = tested on: M. tuberculosis; assay: M. tuberculosis growth inhibition, microdilution broth method; assay type: cell-based; settings: for M. tuberculosis growth inhibition MIC50: microdilution broth method
# [3] = tested on: Staphylococcus aureus; settings: Staphylococcus aureus infected mice; cited from earlier work
# [4] = tested on: Gram-positive and Gram-negative bacteria; settings: both Gram-positive and Gram-negative bacteria; cited from earlier work
# [5] = molecular target: WecA (polyprenyl phosphate-GlcNAc-1-phosphate transferase) (Mycobacterium tuberculosis, UniProt P9WMW5); assay type: biochemical, M. tuberculosis; settings: for IC50: read-out: WecA inhibition IC50
# [6] = tested on: MraY; settings: read-out: MraY enzyme inhibitory activity IC50; cited from earlier work
# [7] = tested on: bacteria; settings: cited from earlier work
molecule,measurement,setting,value
CO[C@H]1[C@@H](O)[C@H](n2ccc(=O)[nH]c2=O)O[C@@H]1[C@@H](O[C@H]1OC(C(=O)N[C@H]2CCCCNC2=O)=C[C@H](O)[C@@H]1O)C(N)=O [Capuramycin],IC50,[1],220 nM
same,MIC50,"[2]; Mycobacterium tuberculosis, read-out: M. tuberculosis growth inhibition MIC50",6.25 µg/mL
CO[C@H]1[C@H](O[C@H]([C@H]2O[C@@H](n3ccc(=O)[nH]c3=O)[C@H](O)[C@@H]2O)[C@H](NCCCNC(=O)[C@@H](NC(=O)[C@@H](NC(=O)N[C@H](C(=O)O)C(C)C)[C@@H]2CCN=C(N)N2)[C@@H](OC(=O)CCCCCCCCCCCCN(O)C(=N)N)C(C)C)C(=O)O)O[C@H](CN)[C@H]1O [Muraymycin A1],ED50,[3],1.1 mg/kg
same,bactericidal activity,[4],bactericidal activity
"CO[C@H]1[C@H](O[C@H]([C@H]2O[C@@H](n3ccc(=O)[nH]c3=O)[C@H](O)[C@@H]2O)[C@H](NCCCNC(=O)[C@H](CC(C)C)NC(=O)[C@@H](NC(=O)N[C@H](C(=O)O)C(C)C)[C@@H]2CCN=C(N)N2)C(=O)O)O[C@H](CN)[C@H]1O [Muraymycin D1 (1), Muraymycin D1]",IC50,[5],690 nM
same,M. tuberculosis growth inhibition MIC50,[2],1.56 µg/mL
same,M. tuberculosis growth inhibition MIC50,[2]; listed as 1,1.56 to 6.25 µg/mL
COC1C(C(OC2OC(C(=O)NC3CCCCNC3=O)=CC(O)C2O)C(N)=O)OC(n2ccc(=O)[nH]c2=O)C1OC (stereo not shown) [UT-01320],IC50,[5],60 nM
same,M. tuberculosis growth inhibition MIC50,[2],1.56 µg/mL
CC(C)C[C@H](NC(=O)[C@@H](NC(=O)N[C@H](C(=O)O)C(C)C)[C@@H]1CCN=C(N)N1)C(=O)NCCCN[C@H](C(=O)O)[C@H](O[C@@H]1O[C@H](CN)[C@@H](O)[C@H]1O)[C@H]1O[C@@H](n2ccc(=O)[nH]c2=O)[C@H](O)[C@@H]1O [muraymycin D2],IC50,[6],10 nM
same,antibacterial activity,[7],no significant antibacterial activity
Muraymycin D1-amide [Muraymycin D1-amide (2)],M. tuberculosis growth inhibition MIC50,[2],1.56 µg/mL
same,M. tuberculosis growth inhibition MIC50,[2]; listed as 2,1.56 to 6.25 µg/mL
Muraymycin D1-diamide [Muraymycin D1-diamide (3)],Inhibition of WecA enzyme relative to 1 and 2,[5],~ 10 times
same,M. tuberculosis growth inhibition MIC50,[2],6.25 µg/mL
same,M. tuberculosis growth inhibition MIC50,[2]; listed as 3,1.56 to 6.25 µg/mL
Tunicamycin,IC50,[5],150 nM
same,IC50,[1]; read-out: MurX inhibition IC50,3380 nM
same,M. tuberculosis growth inhibition MIC50,[2],3.13 µg/mL
